Values of other authors as cited in patent US20230416219A1, “R-MDMA CRYSTAL FORMS” (Mind Medicine, Inc., priority 2022, published 2023).

Experiments:
[1] = system: parkinsonian animal model
[2] = in vivo
[3] = target: 5-HT2A receptors (Homo sapiens, UniProt P28223)
[4] = target: DAT (Homo sapiens, UniProt Q01959)
[5] = target: SERT (Homo sapiens, UniProt P31645)
Chain of SERT (P31645 whole entry, species assumed): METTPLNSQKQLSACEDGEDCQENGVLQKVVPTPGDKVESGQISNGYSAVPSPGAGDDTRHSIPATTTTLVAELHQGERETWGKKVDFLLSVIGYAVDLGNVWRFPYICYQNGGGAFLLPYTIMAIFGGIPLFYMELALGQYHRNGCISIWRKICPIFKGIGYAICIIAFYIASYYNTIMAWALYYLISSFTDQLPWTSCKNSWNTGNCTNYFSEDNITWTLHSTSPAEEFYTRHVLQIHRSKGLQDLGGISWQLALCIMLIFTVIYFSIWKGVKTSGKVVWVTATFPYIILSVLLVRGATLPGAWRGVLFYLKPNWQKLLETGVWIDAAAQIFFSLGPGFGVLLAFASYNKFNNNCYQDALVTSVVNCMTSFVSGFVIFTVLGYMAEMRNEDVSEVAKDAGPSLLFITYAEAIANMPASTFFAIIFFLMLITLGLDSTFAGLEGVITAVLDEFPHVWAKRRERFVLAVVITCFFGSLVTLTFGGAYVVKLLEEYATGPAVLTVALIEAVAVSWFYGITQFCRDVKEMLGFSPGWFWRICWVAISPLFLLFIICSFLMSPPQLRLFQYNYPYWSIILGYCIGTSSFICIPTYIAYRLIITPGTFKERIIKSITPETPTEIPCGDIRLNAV

Chain of 5-HT2A receptors (P28223 whole entry): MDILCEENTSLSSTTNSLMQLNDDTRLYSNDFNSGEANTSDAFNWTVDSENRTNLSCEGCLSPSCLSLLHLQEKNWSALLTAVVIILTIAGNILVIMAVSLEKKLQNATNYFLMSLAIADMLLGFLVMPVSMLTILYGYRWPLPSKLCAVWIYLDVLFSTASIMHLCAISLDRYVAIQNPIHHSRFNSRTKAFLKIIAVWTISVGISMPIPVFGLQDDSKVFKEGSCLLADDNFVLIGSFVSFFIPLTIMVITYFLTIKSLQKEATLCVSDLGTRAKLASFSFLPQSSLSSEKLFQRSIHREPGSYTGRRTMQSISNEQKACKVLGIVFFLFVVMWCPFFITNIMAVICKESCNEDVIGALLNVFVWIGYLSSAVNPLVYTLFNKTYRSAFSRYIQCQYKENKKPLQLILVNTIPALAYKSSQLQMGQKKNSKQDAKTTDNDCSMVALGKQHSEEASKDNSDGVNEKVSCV
Chain of DAT (Q01959 whole entry, species assumed): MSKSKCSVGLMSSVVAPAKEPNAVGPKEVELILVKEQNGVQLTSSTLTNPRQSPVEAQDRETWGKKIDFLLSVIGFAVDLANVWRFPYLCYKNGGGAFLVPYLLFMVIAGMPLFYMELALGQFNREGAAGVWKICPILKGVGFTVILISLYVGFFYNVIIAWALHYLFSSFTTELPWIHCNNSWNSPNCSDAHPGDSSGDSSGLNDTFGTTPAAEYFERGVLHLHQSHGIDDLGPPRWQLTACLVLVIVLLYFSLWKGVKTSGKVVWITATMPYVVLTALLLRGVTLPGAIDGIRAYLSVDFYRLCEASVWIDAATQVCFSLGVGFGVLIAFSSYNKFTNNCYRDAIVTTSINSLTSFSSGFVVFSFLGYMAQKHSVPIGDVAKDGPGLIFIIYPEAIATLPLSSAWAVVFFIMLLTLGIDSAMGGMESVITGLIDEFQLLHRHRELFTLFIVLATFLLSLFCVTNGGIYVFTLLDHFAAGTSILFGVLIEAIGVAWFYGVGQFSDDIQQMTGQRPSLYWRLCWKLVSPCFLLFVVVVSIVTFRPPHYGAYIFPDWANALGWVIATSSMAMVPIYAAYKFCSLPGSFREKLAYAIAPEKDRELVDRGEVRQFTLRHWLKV

Row | SMILES | duration of good ON-time [1] | severity of peak-dose dyskinesia [1] | hyperthermia [2] | selectivity for 5-HT2A receptors [3] | total duration of ON-time [1] | affinity for DAT [4] | affinity for SERT [5]
1 | CN[C@H](C)Cc1ccc2c(c1)OCO2 [R-MDMA] | increased | decreased | does not produce hyperthermia | selective compound for 5-HT2A receptors |  |  | 
2 | CN[C@@H](C)Cc1ccc2c(c1)OCO2 [S-MDMA] |  | exacerbated |  |  | extended | moderate affinity | high affinity
